Measured values published in patent publication US5856480A, “Optically active compound” (Nippon Soda Co., Ltd., priority 1994, dated 1999).
pIC50: −log10 of the molar value.

Experiments:
[1] = system: platelet aggregation; assay: Inhibitory effect on platelet aggregation, overall statement; format: cell-based, rabbits; conditions: same procedure as Test Example 1; crystalline compound of Example 2
Description: In vitro inhibitory activity of the compound of the present invention was evaluated on platelet aggregation each induced by adenosine diphosphate (ADP), collagen, arachidonic acid, U-46619 and thrombin, respectively, by using an aggregation meter (type: hematracer PAT-606, manufactured by Niko bioscience Co., Ltd). 0.38% citric acid-containing blood collected from rabbits was centrifuged at 1,200 rpm for 15 min. to thereby obtain platelet rich plasma (hereinafter referred to as PRP). The PRP obtained was further centrifuged at 3,500 rpm for 10 min., and the supernatant was used as platelet poor plasma (hereinafter referred to as PPP). […] Then, each 22 μl of the said aggregation-inducing agents, ADP, collagen, U-46619 and thrombin, and 2.2 μl of arachidonic acid, were added thereto, respectively, then platelet aggregation was measured for 5 min., except for collagen, for which the measurement was conducted for 10 min. The inhibitory effect on platelet aggregation was expressed as inhibition rate (%) respective to the maximum aggregation rate obtained in the control plot. […]

[2] = Test on Stability (remaining rate by HPLC after storage at 80° C.); format: physicochemical; conditions: for Remaining Rate (%), 0 day: 80° C.; for Remaining Rate (%), 0 day / Remaining Rate (%), After 4 days: sealed vial, HPLC; for Remaining Rate (%), After 4 days: after 4 days at 80° C., 5760 min
Description: To 30 ml of ethanol, was dissolved 2 g of (R)-(-)-4,5-dihydro-5-methyl-6-[4-[(2-propyl-3-oxo-1-cyclohexenyl) amino]phenyl]-3(2H)-pyridazinone under heating, and the solution was place for cooling under room temperature. After condensing the solvent of the solution under reduced pressure, the solution was then dried under reduced pressure by using a vacuum pump, thereby affording 1.5 g of the noncrystalline powder of said compound of which melting point being of from 102° to 106° C.
Each 10 mg of the noncrystalline powder obtained as described above and the crystalline form obtained in the Example 2 were weighed precisely, placed in a 20 ml volume vial then sealed, respectively, and preserved for 4 days at 80° C. Then, the vials were cooled to room temperature, and subsequently the determination of the remaining rate (%) of the test compounds were conducted by using high performance liquid chromatography (HPLC).
Column: TSK-gel 80 TM 4.6 mm I.D×250 mm (Manufactured by Tosoh Corporation)
Mobile phase: Mixture of acetonitrile and distillated water (Combining rate, 60/40)
Flow Speed: 1.0 ml/min., Temperature: 40° C., Wavelength for Detection: 254 nm

[3] = Residue of Solvent (water by Karl Fischer, ethanol by GC); format: physicochemical; conditions: for Water Content (%): Karl Fischer moisture meter; for removal of remaining solvent by drying (in words): as demonstrated in Table 4; for Ethanol Content (%): gas chromatography, sample in DMSO
Description: By using the same noncrystalline powder and the crystalline form as the ones used in the Test Example 2, the amount of remaining solvent was analyzed.
Each 50 mg of the noncrystalline powder and the crystalline form were weighed precisely, on which water content was determined by using a Karl Fischer moisture meter, respectively. Whereas, each 50 mg of the noncrystalline powder and the crystalline form were weighed and dissolved in dimethyl sulfoxide (DMSO), respectively, and those solution were adjusted to a volume of 50 ml, respectively. A 2 μl portion out of the 50 ml solution was used for determining the ethanol content in the test sample by using gas chromatography (GC), respectively.
N2 : 25 ml/min, Air: 0.6 kg/cm^2, H2 : 0.6 kg/cm^2
Temperature : 180° C. at Column; 220° C. at Injection site, 220° C. at Detection site.

[4] = system: platelet aggregation induced by adenosine diphosphate (ADP); assay: Inhibitory effect on platelet aggregation induced by ADP, in vitro, PRP; format: cell-based, rabbits; conditions: Oryctolagus cuniculus, 10 μM ADP, rabbit PRP, 3 min pre-incubation, measured 5 min, read-out: Inhibition of Platelet Aggregation (IC50), ADP
Description: (§1) In vitro inhibitory activity of the compound of the present invention was evaluated on platelet aggregation each induced by adenosine diphosphate (ADP), collagen, arachidonic acid, U-46619 and thrombin, respectively, by using an aggregation meter (type: hematracer PAT-606, manufactured by Niko bioscience Co., Ltd). 0.38% citric acid-containing blood collected from rabbits was centrifuged at 1,200 rpm for 15 min. to thereby obtain platelet rich plasma (hereinafter referred to as PRP). The PRP obtained was further centrifuged at 3,500 rpm for 10 min., and the supernatant was used as platelet poor plasma (hereinafter referred to as PPP). The platelets in the PRP were prepared by dilution with PPP to a concentration of 2 to 5×10^8 cells/ml, and 10 μM of ADP, 20 μg/ml of collagen, 200 μg/ml of arachidonic acid, 10 μM of U-46619 and 0.5 U/ml of thrombin are used for the induction of platelet aggregation, respectively, where all of those concentrations are expressed in the final concentration. The test compound was dissolved in dimethyl sulfoxide (DMSO), and to 0.2 μl of the solution thus obtained, was added 0.2 ml of the sample of PRP prepared as described above, then the solution was placed for pre-incubation for 3 min. Then, each 22 μl of the said aggregation-inducing agents, ADP, collagen, U-46619 and thrombin, and 2.2 μl of arachidonic acid, were added thereto, respectively, then platelet aggregation was measured for 5 min., except for collagen, for which the measurement was conducted for 10 min. The inhibitory effect on platelet aggregation was expressed as inhibition rate (%) respective to the maximum aggregation rate obtained in the control plot. [formula]
(§2) A dose-response curve was prepared, and from which IC50, a dose attainable 50% inhibition of platelet aggregation, was determined.

[5] = system: platelet aggregation induced by collagen; assay: Inhibitory effect on platelet aggregation induced by collagen, in vitro, PRP; format: cell-based, rabbits; conditions: Oryctolagus cuniculus, 20 μg/ml collagen, rabbit PRP, 3 min pre-incubation, measured 10 min, read-out: Inhibition of Platelet Aggregation (IC50), Collagen
Description: as §1, §2

[6] = system: platelet aggregation induced by arachidonic acid; assay: Inhibitory effect on platelet aggregation induced by arachidonic acid, in vitro, PRP; format: cell-based, rabbits; conditions: Oryctolagus cuniculus, 200 μg/ml arachidonic acid, rabbit PRP, 3 min pre-incubation, measured 5 min, read-out: Inhibition of Platelet Aggregation (IC50), Arachidonic Acid
Description: as §1, §2

[7] = system: platelet aggregation induced by U-46619; assay: Inhibitory effect on platelet aggregation induced by U-46619, in vitro, PRP; format: cell-based, rabbits; conditions: Oryctolagus cuniculus, 10 μM U-46619, rabbit PRP, 3 min pre-incubation, measured 5 min, read-out: Inhibition of Platelet Aggregation (IC50), U-46619
Description: as §1, §2

[8] = system: platelet aggregation induced by thrombin; assay: Inhibitory effect on platelet aggregation induced by thrombin, in vitro, PRP; format: cell-based, rabbits; conditions: Oryctolagus cuniculus, 0.5 U/ml thrombin, rabbit PRP, 3 min pre-incubation, measured 5 min, read-out: Inhibition of Platelet Aggregation (IC50), Thrombin
Description: as §1, §2

Question: For CCCC1=C(Nc2ccc(C3=NNC(=O)C[C@H]3C)cc2)CCCC1=O [Crystalline form, (R)-(-)-4,5-dihydro-5-methyl-6-[4-[(2-propyl-3-oxo-1-cyclohexenyl)amino]phenyl]-3(2H)-pyridazinone], which “inhibitory effect on platelet aggregation (in words)” value [1] is on record?
Answer: excellent inhibitory effect on platelet aggregation similar to the effect of the noncrystalline compound, (R)-(-)-(I)

Question: And the “Remaining Rate (%), 0 day” value [2]?
Answer: 100%

Question: And the “stability (in words)” value ([2]; 4 days at 80° C., crystalline form versus noncrystalline powder)?
Answer: superior than that of the noncrystalline powder

Question: And the “Remaining Rate (%), After 4 days” value [2]?
Answer: 96%

Question: And the “Water Content (%)” value [3]?
Answer: 0.2%

Question: And the “removal of remaining solvent by drying (in words)” value [3]?
Answer: easy to dry

Question: And the “Ethanol Content (%)” value [3]?
Answer: 0.2%

Question: With CCCC1=C(Nc2ccc(C3=NNC(=O)CC3C)cc2)CCCC1=O (racemic) [(±)-(I), 4,5-dihydro-5-methyl-6-[4-[(2-propyl-3-oxo-1-cyclohexenyl)amino]phenyl]-3(2H)-pyridazinone] as the compound, how does the pIC50 [4] read?
Answer: 5.35

Question: What about the pIC50 [5] of the same compound?
Answer: 5.46

Question: And the pIC50 [6]?
Answer: 5.77

Question: And the pIC50 [7]?
Answer: 5.82

Question: And the pIC50 [8]?
Answer: 5.52

Question: What does the source list for CCCC1=C(Nc2ccc(C3=NNC(=O)C[C@H]3C)cc2)CCCC1=O [Noncrystalline powder, (R)-(-)-4,5-dihydro-5-methyl-6-[4-[(2-propyl-3-oxo-1-cyclohexenyl)amino]phenyl]-3(2H)-pyridazinone]?
Answer: Remaining Rate (%), 0 day [2]: 100%; Remaining Rate (%), After 4 days [2]: 58%; Water Content (%) [3]: 1.3%; removal of remaining solvent by drying (in words) [3]: difficult to completely remove the remaining solvent; Ethanol Content (%) [3]: 4.3%

Question: With CCCC1=C(Nc2ccc(C3=NNC(=O)C[C@@H]3C)cc2)CCCC1=O [(S)-(-)-(I)] as the compound, how does the pIC50 [4] read?
Answer: 3.11

Question: What about the pIC50 [5] of the same compound?
Answer: 3.00

Question: And the pIC50 [6]?
Answer: 3.54

Question: What about the pIC50 [7] of the same compound?
Answer: < 4.00

Question: And the pIC50 [8]?
Answer: 3.25

Question: Which results are given for CCCC1=C(Nc2ccc(C3=NNC(=O)C[C@H]3C)cc2)CCCC1=O (single isomer, unassigned) [(R)-(-)-(I)]?
Answer: pIC50 [4]: 5.54; pIC50 [5]: 5.60; pIC50 [6]: 6.09; pIC50 [7]: 6.42; pIC50 [8]: 5.82
